Values joined by “and” are separate entries in the source; they are usually repeats but may differ in a detail not shown here. Equal entries are not always repeated.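 All cell lines were grown in 96-well plates and treated with compound for 48 hours. The concentration for 50% growth inhibition is given as GI50.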 Active and inactive are the calls of the source. Cut-off read from the data, not from the text of the source: active = GI50 up to about 1.1 µM and inactive = higher.
Legend:
Assay in all cases: DTP human tumour cell line panel, 48 h
HCT-116 = tested on: HCT-116
HT-29 = tested on: HT-29
NCI-H460 = tested on: NCI-H460
NCI-H522 = tested on: NCI-H522
U-251 = tested on: U-251
OVCAR-8 = tested on: OVCAR-8
A498 = tested on: A498
DMS-114 = tested on: DMS-114
M14 = tested on: M14
SF-268 = tested on: SF-268
ACHN = tested on: ACHN
HOP-62 = tested on: HOP-62
XF498 = tested on: XF498
SF-295 = tested on: SF-295
OVCAR-3 = tested on: OVCAR-3
EKVX = tested on: EKVX
SW-620 = tested on: SW-620
NCI-H226 = tested on: NCI-H226
LOX IMVI = tested on: LOX IMVI
UACC-62 = tested on: UACC-62
CAKI-1 = tested on: CAKI-1
HCT-15 = tested on: HCT-15
KM-20L2 = tested on: KM-20L2
NCI-H23 = tested on: NCI-H23
786-0 = tested on: 786-0
SK-MEL-28 = tested on: SK-MEL-28
SN12C = tested on: SN12C
SK-MEL-2 = tested on: SK-MEL-2
DMS-273 = tested on: DMS-273
COLO 205 = tested on: COLO 205
RPMI-8226 = tested on: RPMI-8226
OVCAR-5 = tested on: OVCAR-5
RXF 393 = tested on: RXF 393
SF-539 = tested on: SF-539
Malme-3M = tested on: Malme-3M
KM12 = tested on: KM12
SK-MEL-5 = tested on: SK-MEL-5

CC1(O)CC2C(CC1SCc1ccccc1)C2(C)C (configuration not stated)
GI50 (HCT-116): 16.6 µM (inactive) and 21.2 µM (inactive)
GI50 (HT-29): 16.4 µM (inactive) and 23.1 µM (inactive)
GI50 (NCI-H460): 14.6 µM (inactive) and 22.9 µM (inactive)
GI50 (NCI-H522): 13.7 µM (inactive) and 11.9 µM (inactive)
GI50 (U-251): 16 µM (inactive) and 21.2 µM (inactive)
GI50 (OVCAR-8): 16.5 µM (inactive) and 29.4 µM (inactive)
GI50 (A498): 18.3 µM (inactive) and 28.1 µM (inactive)
GI50 (DMS-114): 14.5 µM (inactive)
GI50 (M14): 30.1 µM (inactive) and 15.5 µM (inactive)
GI50 (SF-268): 25.9 µM (inactive) and 18.7 µM (inactive)
GI50 (ACHN): 16.8 µM (inactive) and 18.2 µM (inactive)
GI50 (HOP-62): 24.9 µM (inactive) and 16.6 µM (inactive)
GI50 (XF498): 20.5 µM (inactive) and 15.2 µM (inactive)
GI50 (SF-295): 28.2 µM (inactive)
GI50 (OVCAR-3): 12.3 µM (inactive) and 16.9 µM (inactive)
GI50 (EKVX): 16.7 µM (inactive) and 29.7 µM (inactive)
GI50 (SW-620): 17.5 µM (inactive) and 21.7 µM (inactive)
GI50 (NCI-H226): 21.5 µM (inactive) and 16 µM (inactive)
GI50 (LOX IMVI): 17.1 µM (inactive) and 15.5 µM (inactive)
GI50 (UACC-62): 32.4 µM (inactive) and 19.3 µM (inactive)
GI50 (CAKI-1): 15.8 µM (inactive) and 12.5 µM (inactive)
GI50 (HCT-15): 16.9 µM and 22.3 µM
GI50 (KM-20L2): 20.6 µM (inactive) and 26.6 µM (inactive)
GI50 (NCI-H23): 23.3 µM (inactive) and 14.2 µM (inactive)
GI50 (786-0): 15.8 µM (inactive) and 21.7 µM (inactive)
GI50 (SK-MEL-28): 21 µM (inactive) and 29.3 µM (inactive)
GI50 (SN12C): 16.1 µM (inactive) and 23.2 µM (inactive)
GI50 (SK-MEL-2): 17.3 µM (inactive) and 11.4 µM (inactive)
GI50 (DMS-273): 14.2 µM (inactive) and 17.9 µM (inactive)
GI50 (COLO 205): 20 µM (inactive) and 16.9 µM (inactive)
GI50 (RPMI-8226): 11.9 µM (inactive) and 19.8 µM (inactive)
GI50 (OVCAR-5): 17.9 µM (inactive) and 17.1 µM (inactive)
GI50 (RXF 393): 15.3 µM (inactive) and 18.5 µM (inactive)
GI50 (SF-539): 28.8 µM (inactive) and 19.3 µM (inactive)
GI50 (Malme-3M): 22 µM (inactive) and 16.3 µM (inactive)
GI50 (KM12): 19.3 µM (inactive) and 25.3 µM (inactive)
GI50 (SK-MEL-5): 23.6 µM (inactive) and 13.1 µM (inactive)

Reference: ChEMBL document CHEMBL1201862, “PubChem BioAssay data set” (2004)
